The target of series [1] is T1, NACHT, LRR and PYD domains-containing protein 3 (Homo sapiens, UniProt Q96P20). Put plainly: Inhibition of NLRP3 in human THP-1 cells assessed as reduction in caspase 1 level. In kind it is cell-based.
Series [2] can be described thus: Cytotoxicity against human THP-1 cells assessed as reduction in cell viability measured after 72 hrs by MTT assay. Format: toxicity, cell-based. The note with it: read-out: TC50. In general terms: Formazan colour is commonly taken as a measure of viable cells.
For the next series, the system named is THP-1. Put plainly: Induction of pyroptosis in PMA-differentiated human THP-1 cells at 10 uM in presence of ATP by CytoTox 96 nonradioactive assay relative to control. Format: functional.
The target of series [3] is T1, NACHT, LRR and PYD domains-containing protein 3. Put plainly: Inhibition of NLRP3 in human PBMC cells assessed as reduction in IL-1beta production. Format: cell-based.
Series [4] has the same target. Put plainly: Inhibition of NLRP3 (unknown origin) assessed as reduction of IL-1beta production.
A short description of series [5]: Lipophilicity, logP of the compound. In kind it is physicochemical. The note with it: octanol/water.
The target of series [6] is T1, NACHT, LRR and PYD domains-containing protein 3. Put plainly: Inhibition of NLRP3 in human PBMC cells assessed as reduction in TNFalpha level preincubated for 0.5 hrs followed by LPS treatment for […] and further addition of ATP measured after 45 mins. Format: cell-based.
The target is the same in series [7]. Briefly: Inhibition of NLRP3 in human PBMC cells assessed as reduction in Il-1beta production preincubated for 0.5 hrs followed by LPS treatment for […] and further addition of ATP measured after 45 mins. Format: cell-based.

T1 sequence (Q96P20 whole entry, the tested form may be a part): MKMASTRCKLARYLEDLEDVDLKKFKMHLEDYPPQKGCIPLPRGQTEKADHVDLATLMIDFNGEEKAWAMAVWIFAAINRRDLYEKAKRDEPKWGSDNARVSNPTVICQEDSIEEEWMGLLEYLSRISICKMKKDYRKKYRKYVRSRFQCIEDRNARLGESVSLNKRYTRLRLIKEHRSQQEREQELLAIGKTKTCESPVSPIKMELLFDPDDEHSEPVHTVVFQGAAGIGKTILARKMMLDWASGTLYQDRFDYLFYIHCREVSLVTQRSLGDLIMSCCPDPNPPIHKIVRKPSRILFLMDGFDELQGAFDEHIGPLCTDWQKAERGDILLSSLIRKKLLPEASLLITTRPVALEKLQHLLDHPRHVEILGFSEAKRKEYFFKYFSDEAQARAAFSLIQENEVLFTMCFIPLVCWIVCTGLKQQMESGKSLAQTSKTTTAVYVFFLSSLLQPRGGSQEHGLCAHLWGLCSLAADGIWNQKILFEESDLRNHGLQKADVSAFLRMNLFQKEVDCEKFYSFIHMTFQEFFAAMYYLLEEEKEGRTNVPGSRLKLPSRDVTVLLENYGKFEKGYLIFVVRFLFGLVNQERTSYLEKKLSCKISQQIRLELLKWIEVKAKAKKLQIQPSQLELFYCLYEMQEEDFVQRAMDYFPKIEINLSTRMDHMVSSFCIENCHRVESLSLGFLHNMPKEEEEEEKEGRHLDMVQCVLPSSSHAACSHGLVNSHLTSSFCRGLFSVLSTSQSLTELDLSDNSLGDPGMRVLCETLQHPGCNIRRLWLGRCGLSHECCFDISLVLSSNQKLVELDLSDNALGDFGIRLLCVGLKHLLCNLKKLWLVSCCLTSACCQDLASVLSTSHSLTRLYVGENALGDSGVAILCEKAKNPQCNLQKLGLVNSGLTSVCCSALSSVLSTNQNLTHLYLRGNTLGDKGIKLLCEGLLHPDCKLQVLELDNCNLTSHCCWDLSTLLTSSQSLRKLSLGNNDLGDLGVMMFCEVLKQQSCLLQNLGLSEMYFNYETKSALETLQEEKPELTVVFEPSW

As a reminder, the IC50 is the midpoint of a concentration-inhibition curve. `C=CCN1C(=O)/C(=C2/C(=O)Nc3ccccc32)SC1=S`: in series [1], the IC50 is 500 nM.

As for `C=C(Cc1ccccc1Cl)C(=O)NCCc1ccc(S(N)(=O)=O)cc1`, the CC50 at 72 h in series [2] is greater than 100 µM. Moreover, the Activity in the series on THP-1 was 80.9%.

With `C=C1C(=O)[C@]23[C@H](O)[C@@H]1CC[C@H]2[C@@]12CO[C@@]3(O)[C@@H](O)[C@@H]1C(C)(C)CC[C@@H]2O`, the IC50 in series [3] amounted to 5.18 µM.

As a reminder, the logP is the decadic logarithm of the partition coefficient of the neutral form, usually between octanol and water. Turning to `COc1ccc(Cl)cc1C(=O)NCCc1ccc(S(=O)(=O)NO)cc1`, in series [4], the IC50 is 8.45 µM. For the same compound, the logP in series [5] was found to be 0.19.

With `CC(C)c1nn(CC(=O)Nc2ccncn2)c(=O)c2cccn12`, the IC50 in series [6] and in series [7] was greater than 10 µM throughout.

These data come from ChEMBL document CHEMBL5390258, “Recent Progress and Prospects of Small Molecules for NLRP3 Inflammasome Inhibition” (J Med Chem, 2023).
